Maximal fold induction and IC50 data for 21 molecules are collected here from patent US12391679B2, “Benzamide-substituted bicyclic imidazo- and pyrazolo-fused -pyridine, -pyrimide, and -pyridazine compounds for treatment of inflammatory diseases” (ONCO3R Therapeutics BV, priority 2019, dated 2025).

The test system of assay [1] is LPS triggered IL-10 secretion in monocytes. Put plainly: Monocytes assay: LPS-triggered IL-10 (ELISA). The assay is classed as cell-based, human. The following applies: Homo sapiens, Monocyte, LPS-triggered IL-10 induction, median maximal fold change vs LPS only, read-out: IL-10 FCmax median. The method, boiled down:
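CD14+ monocytes bead-isolated from human PBMCs, pretreated with compound 1 h at 37 °C (0.2% DMSO), then stimulated with LPS 200 ng/mL for 4 h. Supernatant IL-10 measured by chemiluminescent sandwich ELISA; fold change versus LPS only per concentration, reported as maximal fold change (FCmax).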

In the next assay the target is T1, SIK3 (Homo sapiens, UniProt Q9Y2K2).
T1 construct: purchased SignalChem S12-11G-100
Put plainly: ADP-Glo kinase assay, SIK3. The assay is classed as biochemical. The method, boiled down:
(§1)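 Steps: add enzyme–substrate mixture; start with diluted ATP; incubate RT 120 min; add ADP-Glo Reagent to terminate and remove unconsumed ATP, 40 min; add detection reagent, 30 min; read luminescence. DMSO at 1% and staurosporine at 10 μM (final) define assay windows.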

The target of the next assay is T2, SIK1 (Homo sapiens, UniProt P57059).
T2 construct: purchased Carna Biosciences 02-131
Kind of assay: ADP-Glo kinase assay, SIK1. The assay is classed as biochemical. The method, boiled down:
as §1

In another assay the target is T3, SIK2 (Homo sapiens, UniProt Q9H0K1).
T3 construct: purchased ThermoFisher Scientific PV4792
Kind of assay: ADP-Glo kinase assay, SIK2. Format: biochemical. The method, boiled down:
as §1

T3 sequence (Q9H0K1 whole entry): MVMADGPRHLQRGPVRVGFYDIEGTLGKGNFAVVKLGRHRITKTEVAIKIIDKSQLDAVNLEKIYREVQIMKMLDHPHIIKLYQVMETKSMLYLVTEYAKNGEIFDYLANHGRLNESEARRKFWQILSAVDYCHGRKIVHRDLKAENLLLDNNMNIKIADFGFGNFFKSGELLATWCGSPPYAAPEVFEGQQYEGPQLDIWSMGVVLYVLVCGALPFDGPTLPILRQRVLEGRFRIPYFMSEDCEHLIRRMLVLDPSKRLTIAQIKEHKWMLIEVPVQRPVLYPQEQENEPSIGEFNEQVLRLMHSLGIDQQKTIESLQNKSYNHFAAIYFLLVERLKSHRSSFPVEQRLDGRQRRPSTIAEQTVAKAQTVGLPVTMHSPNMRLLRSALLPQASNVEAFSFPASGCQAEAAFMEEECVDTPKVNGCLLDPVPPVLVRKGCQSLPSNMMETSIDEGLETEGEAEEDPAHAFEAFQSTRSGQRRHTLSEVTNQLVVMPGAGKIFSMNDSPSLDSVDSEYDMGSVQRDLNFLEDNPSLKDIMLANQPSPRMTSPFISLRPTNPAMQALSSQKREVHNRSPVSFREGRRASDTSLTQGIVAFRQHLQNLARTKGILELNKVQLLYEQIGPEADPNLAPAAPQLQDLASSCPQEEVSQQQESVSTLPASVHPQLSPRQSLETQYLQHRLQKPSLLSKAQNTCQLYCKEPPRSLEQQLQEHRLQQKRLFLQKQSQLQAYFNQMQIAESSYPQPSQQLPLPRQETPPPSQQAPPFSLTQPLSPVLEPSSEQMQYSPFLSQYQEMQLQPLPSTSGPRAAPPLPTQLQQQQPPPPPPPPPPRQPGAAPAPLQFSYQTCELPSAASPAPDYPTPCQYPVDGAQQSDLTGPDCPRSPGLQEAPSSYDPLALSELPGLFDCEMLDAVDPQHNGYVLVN
T2 sequence (P57059 whole entry): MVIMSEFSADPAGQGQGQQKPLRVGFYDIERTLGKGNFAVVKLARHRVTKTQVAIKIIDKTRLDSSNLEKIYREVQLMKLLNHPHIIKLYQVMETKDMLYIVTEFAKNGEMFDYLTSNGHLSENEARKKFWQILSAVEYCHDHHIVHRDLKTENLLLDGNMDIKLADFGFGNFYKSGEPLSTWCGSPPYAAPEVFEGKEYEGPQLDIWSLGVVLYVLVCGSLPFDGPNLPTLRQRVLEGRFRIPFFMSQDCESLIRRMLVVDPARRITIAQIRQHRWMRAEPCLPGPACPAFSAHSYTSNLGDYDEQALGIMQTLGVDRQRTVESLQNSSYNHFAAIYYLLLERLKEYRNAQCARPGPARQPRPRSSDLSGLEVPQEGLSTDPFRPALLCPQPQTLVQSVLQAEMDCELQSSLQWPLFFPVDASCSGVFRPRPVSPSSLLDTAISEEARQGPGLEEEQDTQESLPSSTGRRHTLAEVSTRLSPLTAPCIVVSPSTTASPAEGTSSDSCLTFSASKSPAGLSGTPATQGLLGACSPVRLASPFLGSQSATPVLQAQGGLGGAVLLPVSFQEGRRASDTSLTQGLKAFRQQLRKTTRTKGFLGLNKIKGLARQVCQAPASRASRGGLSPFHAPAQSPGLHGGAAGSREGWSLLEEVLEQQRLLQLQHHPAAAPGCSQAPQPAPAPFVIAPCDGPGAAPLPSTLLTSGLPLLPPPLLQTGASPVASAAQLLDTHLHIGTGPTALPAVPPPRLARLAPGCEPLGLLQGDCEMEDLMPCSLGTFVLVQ
T1 sequence (Q9Y2K2 59-365 limits assumed): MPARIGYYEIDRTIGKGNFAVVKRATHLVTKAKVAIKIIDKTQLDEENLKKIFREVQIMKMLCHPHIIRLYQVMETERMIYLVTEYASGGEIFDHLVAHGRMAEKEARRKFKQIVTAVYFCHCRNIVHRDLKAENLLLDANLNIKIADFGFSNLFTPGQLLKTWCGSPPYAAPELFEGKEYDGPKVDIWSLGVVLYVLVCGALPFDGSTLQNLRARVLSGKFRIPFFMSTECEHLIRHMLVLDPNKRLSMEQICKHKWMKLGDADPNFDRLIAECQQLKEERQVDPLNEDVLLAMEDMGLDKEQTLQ

Turning to `COc1cc(-c2cnc3cc(C(C)(C)C#N)ccn23)cc(OC(F)F)c1C(=O)NC1CC1` [Cpd 19, 4-[7-(1-cyano-1-methyl-ethyl)imidazo[1,2-a]pyridin-3-yl]-N-cyclopropyl-2-(difluoromethoxy)-6-methoxy-benzamide], the maximal fold induction in assay [1] was below 1.5. The values for the IC50 against SIK3, at SIK1 and against SIK2 were 0.01 to 10 nM, above 500 nM and above 500 nM, respectively.
Take `COc1cc(-c2cnc3cc(C4(C#N)CCOCC4)ccn23)cc(OC)c1C(=O)NCC(F)(F)F` [Cpd 107, 4-[7-(4-cyanotetrahydropyran-4-yl)imidazo[1,2-a]pyridin-3-yl]-2,6-dimethoxy-N-(2,2,2-trifluoroethyl)benzamide]: in assay [1], the maximal fold induction fell in the range of 1.5 to 4.5. Further, the half-inhibitory concentration (IC50) against SIK3 is 0.01 to 10 nM; at SIK1 it was above 500 nM; against SIK2, above 500 nM.
In the case of `COc1cc(-c2cnn3cc(C(C)(C)O)ccc23)cc(OC(F)F)c1C(=O)N[C@@H]1C[C@@H]1F` [Cpd 227, 2-(difluoromethoxy)-N-[(1R,2S)-2-fluorocyclopropyl]-4-[6-(1-hydroxy-1-methyl-ethyl)pyrazolo[1,5-a]pyridin-3-yl]-6-methoxy-benzamide], the maximal fold induction in assay [1] was below 1.5. In addition, the IC50 against SIK3 was 0.01 to 10 nM; against SIK1, above 500 nM; at SIK2 it was 100 to 500 nM.
The matching figures for `COc1cc(-c2cnc3cc(C4(C#N)CCOC4)ccn23)cc(OC(F)F)c1C(=O)NC1CC1` (stereo not drawn) [Cpd 123, 4-[7-(3-cyanotetrahydrofuran-3-yl)imidazo[1,2-a]pyridin-3-yl]-N-cyclopropyl-2-(difluoromethoxy)-6-methoxy-benzamide]: 1.5 to 4.5, 10 to 100 nM, above 500 nM and above 500 nM.
For `COc1cc(-c2cnc3cc(C(C)(C)O)ccn23)cc(OC(F)F)c1C(=O)N[C@@H]1C[C@@H]1F` [Cpd 211, 2-(difluoromethoxy)-N-[(1R,2S)-2-fluorocyclopropyl]-4-[7-(1-hydroxy-1-methyl-ethyl)imidazo[1,2-a]pyridin-3-yl]-6-methoxy-benzamide] the same measures were 1.5 to 4.5, 0.01 to 10 nM, above 500 nM and 100 to 500 nM.
The matching figures for `COc1cc(-c2cnn3cc(C4COC4)ccc23)cc(OC(F)F)c1C(=O)N[C@@H]1C[C@@H]1F` [Cpd 218, 2-(difluoromethoxy)-N-[(1R,2S)-2-fluorocyclopropyl]-6-methoxy-4-[6-(oxetan-3-yl)pyrazolo[1,5-a]pyridin-3-yl]benzamide]: 1.5 to 4.5, 0.01 to 10 nM, 100 to 500 nM and 10 to 100 nM.
Turning to `COc1cc(-c2cnn3cc(C4COCCO4)ccc23)cc(OC(F)F)c1C(=O)NC1CC1` (stereo not drawn) [Cpd 232, N-cyclopropyl-2-(difluoromethoxy)-4-[6-(1,4-dioxan-2-yl)pyrazolo[1,5-a]pyridin-3-yl]-6-methoxy-benzamide], the maximal fold induction in assay [1] was below 1.5. The half-maximal inhibitory concentration (IC50) was 0.01 to 10 nM against SIK3, above 500 nM at SIK1 and 100 to 500 nM against SIK2.
For `CCC(C)(C#N)c1ccn2c(-c3cc(OC)c(C(=O)NC4CC4)c(OC(F)F)c3)cnc2c1` (stereo not drawn) [Cpd 27, 4-[7-(1-cyano-1-methyl-propyl)imidazo[1,2-a]pyridin-3-yl]-N-cyclopropyl-2-(difluoromethoxy)-6-methoxy-benzamide] the same measures were below 1.5, 10 to 100 nM, above 500 nM and above 500 nM.
With `COc1cc(-c2cnc3cc(C(F)(F)CO)ccn23)cc(OC(F)F)c1C(=O)NC1CC1` [Cpd 136, N-cyclopropyl-4-[7-(1,1-difluoro-2-hydroxy-ethyl)imidazo[1,2-a]pyridin-3-yl]-2-(difluoromethoxy)-6-methoxy-benzamide], in assay [1], the maximal fold induction was in the range of 1.5 to 4.5. For the same molecule, the values for the IC50 at SIK3, against SIK1 and against SIK2 were 0.01 to 10 nM, above 500 nM and 100 to 500 nM, respectively.
Regarding `COc1cc(-c2cnc3cc(C4(C#N)CCOCC4)ccn23)cc(OC(F)F)c1C(=O)NC1CC1` [Cpd 116, 4-[7-(4-cyanotetrahydropyran-4-yl)imidazo[1,2-a]pyridin-3-yl]-N-cyclopropyl-2-(difluoromethoxy)-6-methoxy-benzamide], in assay [1], the maximal fold induction lay within 1.5 to 4.5. The values for the IC50 against SIK3, against SIK1 and at SIK2 were 0.01 to 10 nM, above 500 nM and above 500 nM, respectively.
With `COc1cc(-c2cnn3cc(C4COC4)ccc23)cc(OC(F)F)c1C(=O)NC1CC1` [Cpd 216, N-cyclopropyl-2-(difluoromethoxy)-6-methoxy-4-[6-(oxetan-3-yl)pyrazolo[1,5-a]pyridin-3-yl]benzamide], the maximal fold induction in assay [1] is below 1.5. For the same molecule, the IC50 at SIK3 lay within 10 to 100 nM; at SIK1, 100 to 500 nM; at SIK2, 100 to 500 nM.
`COc1cc(-c2cnc3cc(C4(C#N)COC4)ccn23)cc(OC(F)F)c1C(=O)N[C@@H]1C[C@@H]1F` [Cpd 130, 4-[7-(3-cyanooxetan-3-yl)imidazo[1,2-a]pyridin-3-yl]-2-(difluoromethoxy)-N-[(1R,2S)-2-fluorocyclopropyl]-6-methoxy-benzamide]: the maximal fold induction in assay [1] is 1.5 to 4.5. For the same molecule, the IC50 against SIK3 is 0.01 to 10 nM; against SIK1 it was above 500 nM; against SIK2 it was above 500 nM.
Regarding `COc1cc(-c2cnn3cc(C(C)(C)N)ccc23)cc(OC(F)F)c1C(=O)N[C@@H]1C[C@@H]1F` [Cpd 256, 4-[6-(1-amino-1-methyl-ethyl)pyrazolo[1,5-a]pyridin-3-yl]-2-(difluoromethoxy)-N-[(1R,2S)-2-fluorocyclopropyl]-6-methoxy-benzamide], the maximal fold induction in assay [1] was below 1.5. Further, the results for the IC50 at SIK3, against SIK1 and on SIK2 were 0.01 to 10 nM, above 500 nM and above 500 nM, respectively.
For `COc1cc(-c2cnc3cc(C4COC4)ccn23)cc(OC(F)F)c1C(=O)NC1CC1` [Cpd 174, N-cyclopropyl-2-(difluoromethoxy)-6-methoxy-4-[7-(oxetan-3-yl)imidazo[1,2-a]pyridin-3-yl]benzamide], the maximal fold induction in assay [1] fell in the range of 1.5 to 4.5. The IC50 against SIK3 was 0.01 to 10 nM; against SIK1, 100 to 500 nM; at SIK2, 10 to 100 nM.
`COc1cc(-c2cnc3cc(C4CCCN4C)ccn23)cc(OC(F)F)c1C(=O)NC1CC1` (stereo not drawn) [Cpd 171, N-cyclopropyl-2-(difluoromethoxy)-6-methoxy-4-[7-(1-methylpyrrolidin-2-yl)imidazo[1,2-a]pyridin-3-yl]benzamide]: the maximal fold induction in assay [1] is 1.5 to 4.5. The IC50 against SIK3 is 10 to 100 nM; on SIK1, above 500 nM; against SIK2 it was above 500 nM.
As for `COc1cc(-c2cnc3cc(C(C)(C#N)CO)ccn23)cc(OC(F)F)c1C(=O)NC1CC1` (stereo not drawn) [Cpd 176, 4-[7-(1-cyano-2-hydroxy-1-methyl-ethyl)imidazo[1,2-a]pyridin-3-yl]-N-cyclopropyl-2-(difluoromethoxy)-6-methoxy-benzamide], the maximal fold induction in assay [1] was in the range of 1.5 to 4.5. Moreover, the IC50 at SIK3 was 10 to 100 nM; against SIK1, above 500 nM; against SIK2, above 500 nM.
For the molecule `COc1cc(-c2cnn3cc(C4(N)CCC4)ccc23)cc(OC(F)F)c1C(=O)N[C@@H]1C[C@@H]1F` [Cpd 261, 4-[6-(1-aminocyclobutyl)pyrazolo[1,5-a]pyridin-3-yl]-2-(difluoromethoxy)-N-[(1R,2S)-2-fluorocyclopropyl]-6-methoxy-benzamide], the maximal fold induction in assay [1] is below 1.5. Moreover, the IC50 is 0.01 to 10 nM at SIK3, above 500 nM against SIK1 and above 500 nM against SIK2.
For `COc1cc(-c2cnc3cc(C4COC4)ccn23)cc(OC(F)F)c1C(=O)N[C@@H]1C[C@@H]1F` [Cpd 206, 2-(difluoromethoxy)-N-[(1R,2S)-2-fluorocyclopropyl]-6-methoxy-4-[7-(oxetan-3-yl)imidazo[1,2-a]pyridin-3-yl]benzamide], in assay [1], the maximal fold induction is 1.5 to 4.5. For the same molecule, the IC50 against SIK3 lay within 0.01 to 10 nM; on SIK1, 100 to 500 nM; against SIK2, 10 to 100 nM.
The matching figures for `COc1cc(-c2cnc3cc(C4(F)COC4)ccn23)cc(OC(F)F)c1C(=O)N[C@@H]1C[C@@H]1F` [Cpd 224, 2-(difluoromethoxy)-N-[(1R,2S)-2-fluorocyclopropyl]-4-[7-(3-fluorooxetan-3-yl)imidazo[1,2-a]pyridin-3-yl]-6-methoxy-benzamide]: 1.5 to 4.5, 0.01 to 10 nM, 100 to 500 nM and 10 to 100 nM.
Consider `COc1cc(-c2cnc3cc(C(C)(C)C#N)ccn23)cc(OC(F)F)c1C(=O)N[C@@H]1C[C@@H]1F` [Cpd 79, 4-[7-(1-cyano-1-methyl-ethyl)imidazo[1,2-a]pyridin-3-yl]-2-(difluoromethoxy)-N-[(1R,2S)-2-fluorocyclopropyl]-6-methoxy-benzamide], for which the maximal fold induction in assay [1] lay in the range of 1.5 to 4.5. In addition, the figures for the IC50 against SIK3, on SIK1 and against SIK2 were 0.01 to 10 nM, above 500 nM and 100 to 500 nM, respectively.
For `COc1cc(-c2cnn3cc(C(C)(C)C#N)cnc23)cc(OC(F)F)c1C(=O)N[C@@H]1C[C@@H]1F` [Cpd 231, 4-[6-(1-cyano-1-methyl-ethyl)pyrazolo[1,5-a]pyrimidin-3-yl]-2-(difluoromethoxy)-N-[(1R,2S)-2-fluorocyclopropyl]-6-methoxy-benzamide] the same measures were below 1.5, 0.01 to 10 nM, above 500 nM and above 500 nM.
